Results from patent US20230114207A1, “THE COMBINATION OF CYCLIN DEPENDENT KINASE 7 INHIBITOR AND IMMUNOTHERAPY FOR TREATMENT OF CANCER” (Dana-Farber Cancer Institute, Inc., priority 2019, published 2023).

System: INSM1, ASCL1, NFIB and MYC in DMS79 and GLC16
Assay: RT-qPCR of super enhancer (SE)-associated genes
Format: cell-based, human
Conditions: 24 hr
Method: Cell pellets were collected and then subjected to total RNA extraction using RNeasy Plus Mini Kit (QIAGEN, Cat #74136) according to the manufacturer's instructions, or using TRIzol:Chloroform phase-separation by centrifugation followed by RNA precipitation using isopropanol. The extracted RNA was reversely transcribed into cDNA using the High-Capacity RNA-to-cDNA™ Kit (Thermo Fisher Scientific, Cat #4387406) according to the manufacturer's instructions. The obtained cDNA samples were diluted and used for RT-qPCR. PowerUp™ SYBR™ Green Master Mix (Thermo Fisher Scientific, Cat #A25742) or TaqMan Gene Expression Master Mix (Life Technologies, Cat #4369514). Gene specific primers with sequences listed in Table 3 were used for PCR amplification and detection on the StepOnePlus™ Real-Time PCR System (Thermo Fisher Scientific). RT-qPCR data were normalized to Actb (mouse cells) or GUSB (human cells) and presented as fold changes of gene expression in the test sample compared to the control.

CN(C)C/C=C/C(=O)Nc1ccc(C(=O)Nc2cccc(Nc3ncc(Cl)c(-c4c[nH]c5ccccc45)n3)c2)cc1 [THZ1, reference compound]
expression of super enhancer (SE)-associated genes including INSM1, ASCL1, NFIB and MYC: significant reduction
